Results published in patent US20160168147A1, “ISOTOPICALLY ENRICHED AZAINDOLES” (Vertex Pharmaceuticals Incorporated, priority 2013, published 2016).

Test system: Cryopreserved Human Hepatocytes
Assay: Assessment of metabolite profile and kinetic isotope effect in human hepatocytes (Example 6)
Type: in vitro ADME
Details: 3 μM and 10 μM, sampled at 120 minutes, LC-MS MRM
Procedure: Cryopreserved Human Hepatocytes lot TFF (purchased from Celsis) were used. Hepatocytes were thawed using CHRM and suspended in Williams E media containing cell maintenance supplement package. 1000 μL of a final cell concentration 1 million cells/mL were placed in individual incubation wells (24-well plate set-up). Incubation was conducted at 37° C. and kept in a CO2/O2 humidified incubator. 10 μL of compound stock was spiked into cell the matrix to achieve final incubation concentrations of 3 μM and 10 μM. The matrix was swirled prior to the removal of each time-point and 50 μL of sample were removed and added to 200 μL of acetonitrile containing internal standard, IS. Time-points were sampled at 120 minutes using MRM on an ABSciex API5500-QTrap paired with an Agilent 1290 UPLC and a CTC PAL autosampler. A 20-minute gradient method using a HALO C18 2.1×50 mm 2.7 μm column made by Advanced Materials Technology was used for the analysis. /

new metabolites observed: no new metabolites were observed
SMILES: [2H]c1[nH]c2ncccc2c1-c1nccc(N[C@](C)(CC)C(=O)NCC(F)(F)F)n1 [Compound 1-a, (2R)-2-[[2-(2-deuterio-1H-pyrrolo[2,3-b]pyridin-3-yl)pyrimidin-4-yl]amino]-2-methyl-N-(2.2.2-trifluoroethyl)butanamide]
